The target in series [1] is α2 subunit of GABAA receptor (Rattus norvegicus, UniProt P18508+P23576). The experiment in a line: biochemical. As to conditions: for inhibition at 10 µM: read-out: % Inhib 10^−5 M; for inhibition at 0.1 µM: read-out: % Inhib 10^−7 M.
Description: Determination of the Affinity of Test Compounds for α1- and α2-GABAA Receptor
Male Sprague-Dawley rats weighing 200-250 g at the time of experiment were used. After decapitation, the cerebellum (tissue that mostly contains α1-GABAA receptor) and spinal cord (tissue that mostly contains α2-GABAA receptor) were removed. […] Once the tissues weighed, they were suspended in 50 mM Tris.HCl (pH 7.4), 1:40 (v/v), or sucrose 0.32 M in the case of spinal cord, homogenized and then centrifuged at 20000 g for 10 min at 7° C. The resulting pellet was resuspended under the same conditions and centrifuged again. The pellet was finally resuspended on a minimum volume and kept at −80° C. overnight. On the next day, the process was repeated until the final pellet was resuspended at a ratio of 1:10 (v/v) in the case of cerebellum and at a ratio of 1:5 (v/v) in the case of spinal cord.
Affinity was determined by competitive tests using radiolabeled flumazenil as ligand. […] Simultaneously, the membranes were only incubated with the radiolabeled flumazenil (total binding, 100%) and in the presence of an elevated concentration of unradiolabeled flumazenil (non-specific binding, % estimation of radiolabeled ligand). The reactions started on adding the radiolabeled ligand followed by incubation for 60 minutes at 4° C. At the end of the incubation period, 200 μl of reaction were transferred to a multiscreen plate (Millipore) and filtered using a vacuum manifold and then washed three times with cold test buffer. The multiscreen plates were equipped with a GF/B filter that retained the membranes containing the receptors and the radiolabeled ligand which had been bound to the receptors. After washing, the plates were left till dry. Once dried, scintillation liquid was added and left under stirring overnight. The next day the plates were counted using a Perkin-Elmer Microbeta scintillation counter.
where, X: amount of bound ligand for every concentration of compound. T: total binding, maximum amount bound to the radiolabeled ligand. N: non-specific binding, amount of radiolabeled ligand bound in a non-specific way irrespective of the receptor used.
Every concentrations of each compound were tested in triplicate and their mean values were used to determine the experimental values of % specific binding versus the concentration of compound.
The test system of the next series is motor activity of mice. The experiment in a line: In vivo predictive sedation-hypnosis test in mice (inhibition of traveled distance). Also on record: species or system mouse. As to conditions: for inhibition in vivo at 0.98 µmol/kg / inhibition in vivo at 98 µmol/kg / inhibition in vivo at 3 µmol/kg: Mus musculus, read-out: % Inhib motor activity; for inhibition in vivo at 0.98 µmol/kg: 0.98 μmol/kg; for inhibition in vivo at 0.98 µmol/kg / inhibition in vivo at 98 µmol/kg / inhibition in vivo at 3 µmol/kg / inhibition percentage (motor activity): mice; for inhibition in vivo at 98 µmol/kg: 98 μmol/kg; for inhibition in vivo at 3 µmol/kg: 3 μmol/kg; for inhibition percentage (motor activity): 3 μmol/kg po. The method, then: 2—In Vivo Determination of Predictive Sedative-Hypnotic Action
The in vivo effects of these compounds were assessed by a predictive sedation-hypnosis test in mice (D. J. Sanger et al., Eur. J. Pharmacol., 313, 35-42, 1996; and G. Griebel et al., Psychopharmacology, 146, 205-213, 1999).
Groups of 5-8 male CD1 mice, weighing 22-26 g at the time of testing, were used. The test compounds were administered in single equimolecular intraperitoneal doses, suspended in 0.25% agar with one drop of Tween 80 in a volume of 10 ml/kg. Two doses were tested in each route. Control animals received the vehicle alone. Using a Smart System (Panlab, S. L., Spain) the traveled distance in cm was recorded for each mouse at 5-min intervals during a period of 30 minutes after intraperitoneal (ip) dosing and 60 minutes after oral (po) dosing. The inhibition percentage of traveled distance of treated animals versus control animals (the first 5 min were discarded) was calculated.

The target of series [2] is α1 subunit of GABAA receptor (Rattus norvegicus, UniProt P18508+P62813). The experiment in a line: biochemical. As to conditions: for inhibition at 10 µM: read-out: % Inhib 10^−5 M; for inhibition at 0.1 µM: read-out: % Inhib 10^−7 M. The text has this:
% specific binding=(X−N/T−N)×100

Series [3] is described as follows: Metabolic stability in human hepatocytes cytosolic fraction. Format: in vitro ADME. As to conditions: 5 μM, 1.0 mg/ml human cytosol, 37° C. As for the experimental part: In Vitro Determination of Metabolic Stability in Human Hepatocytes Cytosolic Fraction
Compounds were dissolved in DMSO to achieve an initial concentration of 10 mM. This stock solution was then diluted with solvent and buffer to obtain final assay concentration of 5 μM. Compounds were tested at a single concentration of 5 μM in duplicate incubating with 1.0 mg/ml of pooled human cytosol (obtained from Xenotech plc) at 37° C. Metabolism was assessed in the presence or absence of cofactors and measured as loss of parent compound by LC/MS analysis at 0, 60 and 120-minutes time points. Percent parent remaining was then calculated. A generic LC method was used: • Mobile phase: • A=0.1% Formic acid in water • B=0.1% Formic acid in acetonitrile • HPLC Column: Higgins Clipius C18 5 μm, 50×3 mm • Flow rate: 2 ml·min^−1

Series [4] can be described thus: Pharmacokinetic profile after single intravenous dose in rats. Format: in vivo. As to conditions: rat; for Vd / clearance / half-life: male, Sprague-Dawley, plasma; for Vd / clearance / half-life / AUC0-t: mean. As for the experimental part: In Vivo Determination of Pharmacokinetic Profile after Single Dose
Indiplon was used as reference compound. Three male Sprague-Dawley rats, weighing 250-300 g were used for each compound. The sampling was performed by retroorbital sinus puncture at the following time points 2.5, 5, 30, 60, 120, 180, 300 and 420 min post-administration. The samples were kept in an ice-bath until plasma separation. The animals were anaesthetized by isoflurane inhaled at each extraction. Plasma was separated by centrifugation (10 min, 4° C., 4500 rpm) and stored at temperature below −70° C. until analysis.
An analytical method based on an extraction of each compound by liquid-solid extraction and subsequent determination by LC/MS or LC/MS/MS using an internal standard (IS) was used.
Calculation of pharmacokinetic parameters (AUC0-t=area under the curve from zero to last extraction time-point, Cl=clearance, t1/2=half-life and Vd=volume of distribution) according to non-compartmental analysis was performed.

The test system of another series is HepG2 cells. The experiment in a line: In vitro cell toxicity in HepG2 at 24 h (MTS). It counts as cell-based, human. As to conditions: for cytotoxicity compared with prior art compounds: HepG2, 24 h; for cell toxicity in HepG2, percentage of control (relative cell viability): 100 μM, 24 h, MTS. As for the experimental part: In Vitro Determination of Cell Toxicity in HepG2 at 24 h
HepG2 cells (human hepatocellular carcinoma) were obtained from the American Type Culture Collection (ATCC) and cultured in Eagle's Minimum Essential Medium (Eagle) with Earle's balanced salt solution adjusted to contain 1.87 mM Glutamax™ I, 0.1 mM non-essential amino acids, 1.0 mM sodium pyruvate, 100000 U/L penicillin, 10000 μg/L streptomycin 90%; fetal bovine serum, 10%. Promega CellTiter 96® Aqueous Non-Radioactive Cell Viability Assay contains the tetrazolium compound [3-(4,5-dimethylthiazol-2-yl)-5-(3-carboxymethoxyphenyl)-2-(4-sulfophenyl)-2H-tetrazolium, inner salt (MTS). The conversion of MTS into the aqueous soluble formazan product is accomplished by dehydrogenase enzymes found in metabolically active cells. The quantity of formazan product is directly proportional to the number of living cells in culture.
Compounds were dissolved in DMSO to achieve an initial concentration of 100 mM. Serial dilutions were made from this stock solution into DMSO to achieve concentrations of 10, 1, 0.1 and 0.01 mM. The stock solution and serial dilutions were then diluted 1:100 with cell culture medium to obtain […] final assay concentrations of […]. The final DMSO concentration in all wells was 1% v/v. HepG2 cells were incubated with test compounds for 24 hours. Relative cell viability was determined spectrophotometrically at 490 nm following the addition of the MTS dye and further one-hour incubation. Tamoxifen was used as the positive control.
The percent absorbance of the samples treated with the test article was compared to the untreated sample to calculate the percentage of control.

Like-named read-outs stand apart in the source and are kept apart here.

α2 subunit of GABAA receptor, sequence (P23576 29-451): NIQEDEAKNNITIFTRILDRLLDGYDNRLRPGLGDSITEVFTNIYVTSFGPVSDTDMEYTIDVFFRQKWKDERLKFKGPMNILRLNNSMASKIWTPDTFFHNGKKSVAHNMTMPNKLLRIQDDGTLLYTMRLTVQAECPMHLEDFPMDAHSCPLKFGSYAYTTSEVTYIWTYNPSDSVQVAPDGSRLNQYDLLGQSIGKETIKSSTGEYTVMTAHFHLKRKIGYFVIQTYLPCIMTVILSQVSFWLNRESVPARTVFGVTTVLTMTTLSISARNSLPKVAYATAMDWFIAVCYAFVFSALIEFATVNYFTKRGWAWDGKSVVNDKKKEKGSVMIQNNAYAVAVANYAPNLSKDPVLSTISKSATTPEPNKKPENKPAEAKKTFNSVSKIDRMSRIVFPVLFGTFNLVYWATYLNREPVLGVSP
α2 subunit of GABAA receptor, sequence (P18508 39-466): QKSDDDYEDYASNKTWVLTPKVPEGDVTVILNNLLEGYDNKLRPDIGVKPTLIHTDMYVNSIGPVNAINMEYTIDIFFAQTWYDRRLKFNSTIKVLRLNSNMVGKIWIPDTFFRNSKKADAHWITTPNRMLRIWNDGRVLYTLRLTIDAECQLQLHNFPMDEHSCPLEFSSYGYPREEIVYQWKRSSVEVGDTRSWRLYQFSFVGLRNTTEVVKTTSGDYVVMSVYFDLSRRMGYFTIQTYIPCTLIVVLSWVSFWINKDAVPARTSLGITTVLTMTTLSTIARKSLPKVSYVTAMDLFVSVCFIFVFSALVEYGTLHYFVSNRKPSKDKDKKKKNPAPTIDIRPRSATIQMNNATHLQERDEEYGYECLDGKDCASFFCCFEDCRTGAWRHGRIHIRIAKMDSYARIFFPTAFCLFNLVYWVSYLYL
α2 subunit of GABAA receptor, sequence (P63079 26-473 partner): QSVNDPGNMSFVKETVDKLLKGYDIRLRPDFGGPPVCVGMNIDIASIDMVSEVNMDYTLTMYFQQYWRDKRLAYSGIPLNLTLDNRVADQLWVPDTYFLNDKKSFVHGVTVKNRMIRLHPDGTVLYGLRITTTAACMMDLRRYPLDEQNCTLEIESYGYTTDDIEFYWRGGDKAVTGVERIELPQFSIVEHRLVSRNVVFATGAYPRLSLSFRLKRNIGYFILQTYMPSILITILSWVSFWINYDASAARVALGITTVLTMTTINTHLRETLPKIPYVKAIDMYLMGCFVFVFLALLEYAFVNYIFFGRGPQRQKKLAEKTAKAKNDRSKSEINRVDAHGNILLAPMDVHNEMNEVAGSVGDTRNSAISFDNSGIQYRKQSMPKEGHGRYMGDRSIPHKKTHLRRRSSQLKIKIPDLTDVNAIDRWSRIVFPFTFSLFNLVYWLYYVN
α1 subunit of GABAA receptor, sequence (P62813 28-455): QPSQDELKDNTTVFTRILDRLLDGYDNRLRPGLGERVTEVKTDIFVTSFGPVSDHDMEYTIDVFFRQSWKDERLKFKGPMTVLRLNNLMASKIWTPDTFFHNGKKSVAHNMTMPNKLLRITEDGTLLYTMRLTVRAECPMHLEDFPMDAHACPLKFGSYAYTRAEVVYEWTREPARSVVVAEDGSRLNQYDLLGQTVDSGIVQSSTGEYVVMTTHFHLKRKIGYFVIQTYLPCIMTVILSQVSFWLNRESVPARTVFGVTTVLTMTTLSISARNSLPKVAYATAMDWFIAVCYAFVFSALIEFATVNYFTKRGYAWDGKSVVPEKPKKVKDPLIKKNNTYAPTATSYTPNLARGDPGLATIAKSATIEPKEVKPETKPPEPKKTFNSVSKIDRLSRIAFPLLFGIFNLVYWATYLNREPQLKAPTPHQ
α1 subunit of GABAA receptor, sequence (P18508 39-466): as the sequence (P18508 39-466) above
α1 subunit of GABAA receptor, sequence (P63138 26-474 partner): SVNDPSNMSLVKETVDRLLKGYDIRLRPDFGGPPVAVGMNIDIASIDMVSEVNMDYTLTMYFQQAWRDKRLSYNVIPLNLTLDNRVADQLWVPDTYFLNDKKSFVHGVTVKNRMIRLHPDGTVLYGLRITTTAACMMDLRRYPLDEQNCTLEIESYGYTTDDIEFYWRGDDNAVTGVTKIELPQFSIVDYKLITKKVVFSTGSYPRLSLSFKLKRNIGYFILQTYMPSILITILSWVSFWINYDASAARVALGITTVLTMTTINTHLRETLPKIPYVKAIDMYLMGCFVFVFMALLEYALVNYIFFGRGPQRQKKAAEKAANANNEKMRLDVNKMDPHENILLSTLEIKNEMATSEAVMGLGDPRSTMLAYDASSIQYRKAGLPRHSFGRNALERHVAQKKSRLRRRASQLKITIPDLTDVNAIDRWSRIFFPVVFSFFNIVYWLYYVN

For `CN(c1cccc(-c2ccnc3c(C(=O)c4cccs4)cnn23)c1)S(C)(=O)=O` [Example 3 WO2005014597, N-{3-[3-(thiophene-2-carbonyl)-pyrazolo[1,5-a]pyrimidin-7-yl]-phenyl}-N-methyl-methanesulfonamide, reference compound], in series [1], the inhibition at 10 µM came to 99.8% and the inhibition at 0.1 µM was determined as 58.5%. Further, in the series on motor activity of mice (ip), the inhibition in vivo at 0.98 µmol/kg was 64.6% and the inhibition in vivo at 98 µmol/kg was 89.8%. In addition, in series [2], the inhibition at 10 µM worked out at 100% and the inhibition at 0.1 µM is 90.6%.
Regarding `C#CCN(c1cccc(-c2ccnc3c(C(=O)c4cccs4)cnn23)c1)S(C)(=O)=O` [Example 16 WO2005014597, N-{3-[3-(thiophene-2-carbonyl)-pyrazolo[1,5-a]pyrimidin-7-yl]-phenyl}-N-prop-2-ynyl-methanesulfonamide, reference compound], in the series with motor activity of mice (ip), the inhibition in vivo at 0.98 µmol/kg was 71.4% and the inhibition in vivo at 98 µmol/kg was 95.4%. Also, in the series with motor activity of mice (po), the inhibition in vivo at 3 µmol/kg was 38.8% and the inhibition in vivo at 98 µmol/kg is 84.3%. Further, in series [2], the inhibition at 10 µM turned out to be 100% and the inhibition at 0.1 µM was 99.9%.
One may read the Vd as a proportionality between amount in the body and measured concentration, not a real space. As usually defined, the clearance is the rate of elimination divided by the concentration. Low values mean a low capacity for elimination, high ones a high capacity for elimination. In general, half-life refers to the time needed for the level to fall by half in the phase considered. On to `CC(=O)N(C)c1cccc(-c2ccnc3c(C(=O)c4cccs4)cnn23)c1` [Indiplon, N-{3-[3-(thiophene-2-carbonyl)-pyrazolo[1,5-a]pyrimidin-7-yl]-phenyl}-N-methyl-acetamide, reference compound], for which the “inhibition percentage (motor activity)” value in the series with motor activity of mice (5 minutes) was 74%. For the same molecule, in the series with motor activity of mice (60 minutes), the “inhibition percentage (motor activity)” value is 67%. Moreover, in the series with motor activity of mice (ip), the inhibition in vivo at 0.98 µmol/kg was 70.5% and the inhibition in vivo at 98 µmol/kg is 88%. For the same molecule, in the series with motor activity of mice (po), the inhibition in vivo at 3 µmol/kg was 73.7% and the inhibition in vivo at 98 µmol/kg was 82.4%. The Percent parent remaining in series [3] (60 min) was found to be 100%. Moreover, the Percent parent remaining in series [3] (120 min) worked out at 98%. In addition, in series [4], the Vd is 2.32 L/kg, the clearance is 57.5 mL/min/kg, the half-life was 0.984 h and the AUC0-t is 700 ng·h/mL.
Consider `CC(=O)N(C)c1cc(-c2ccnc3c(C(=O)c4cccs4)cnn23)ccc1F` [Preparative example 2, N-{2-Fluoro-5-[3-(thiophene-2-carbonyl)-pyrazolo[1,5-a]pyrimidin-7-yl]-phenyl}-N-methyl-acetamide], for which, in series [1], the inhibition at 10 µM was 99.3% and the inhibition at 0.1 µM is 67.3%. Moreover, the “cytotoxicity compared with prior art compounds” value in the series with HepG2 cells is “less cytotoxicity than prior art compounds”. Moreover, the “inhibition percentage (motor activity)” value in the series on motor activity of mice (5 minutes) was 84%. The “inhibition percentage (motor activity)” value in the series with motor activity of mice (60 minutes) is given as 84%. In addition, in the series with motor activity of mice (ip), the inhibition in vivo at 0.98 µmol/kg was 81.2% and the inhibition in vivo at 98 µmol/kg was 95%. In the series on motor activity of mice (po), the inhibition in vivo at 3 µmol/kg was 84% and the inhibition in vivo at 98 µmol/kg is 92.3%. Besides, the Percent parent remaining in series [3] (60 min) came to 104%. For the same molecule, the Percent parent remaining in series [3] (120 min) is listed as 110%. Moreover, in series [2], the inhibition at 10 µM is 100% and the inhibition at 0.1 µM is 95.3%. In series [4], this molecule gave a Vd of 7.24 L/kg, a clearance of 45.7 mL/min/kg, a half-life of 1.73 h and an AUC0-t of 1100 ng·h/mL. Also, in series [4] (versus Indiplon), the “area under the curve higher than Indiplon” value is given as 57%, the “clearance lower than Indiplon” value is given as 20%, the “half-life higher than Indiplon” value is 76% and the “volume of distribution higher than Indiplon” value is reported as 212%.
`CC(=O)N(C)c1cc(-c2ccnc3c(C(=O)c4cccs4)cnn23)ccc1Cl` [Preparative example 4, N-{2-Chloro-5-[3-(thiophene-2-carbonyl)-pyrazolo[1,5-a]pyrimidin-7-yl]-phenyl}-N-methyl-acetamide]: the figures for the inhibition at 10 µM in series [1] and in series [2] were 95.7% and 99.8%, respectively. The inhibition at 0.1 µM was found to be 8.4% in series [1] and 60% in series [2]. Moreover, the “cell toxicity in HepG2, percentage of control (relative cell viability)” value in the series with HepG2 cells is on record as 92.86%. The “cytotoxicity compared with prior art compounds” value in the series on HepG2 cells was “less cytotoxicity than prior art compounds”. For the same molecule, the figures for the inhibition in vivo at 98 µmol/kg in the series with motor activity of mice (ip) and with motor activity of mice (po) were 90.3% and 88.7%, respectively. Besides, the Percent parent remaining is on record as 105% in series [3] (60 min) and 103% in series [3] (120 min).
With `CN(c1cc(-c2ccnc3c(C(=O)c4cccs4)cnn23)ccc1F)S(C)(=O)=O` [Preparative example 6, N-{2-Fluoro-5-[3-(thiophene-2-carbonyl)-pyrazolo[1,5-a]pyrimidin-7-yl]-phenyl}-N-methyl-methanesulfonamide], in series [1], the inhibition at 10 µM stood at 97.9% and the inhibition at 0.1 µM was determined as 55.9%. In the series on HepG2 cells, the “cell toxicity in HepG2, percentage of control (relative cell viability)” value is reported as 84.31% and the “cytotoxicity compared with prior art compounds” value was “less cytotoxicity than prior art compounds”. In addition, in the series on motor activity of mice (ip), the inhibition in vivo at 0.98 µmol/kg was 69.4% and the inhibition in vivo at 98 µmol/kg was 91.5%. Besides, in the series on motor activity of mice (po), the inhibition in vivo at 3 µmol/kg was 46.2% and the inhibition in vivo at 98 µmol/kg is 82%. Moreover, in series [3] (60 min), the Percent parent remaining amounted to 103%. In series [3] (120 min), the Percent parent remaining amounted to 106%. In series [2], the inhibition at 10 µM turned out to be 99.7% and the inhibition at 0.1 µM turned out to be 88.8%.
The melting point is the temperature, or range, at which the solid turns liquid. Consider `C#CCN(c1cc(-c2ccnc3c(C(=O)c4cccs4)cnn23)ccc1F)S(C)(=O)=O` [Preparative example 10, N-{2-Fluoro-5-[3-(thiophene-2-carbonyl)-pyrazolo[1,5-a]pyrimidin-7-yl]-phenyl}-N-prop-2-ynyl-methanesulfonamide], for which the melting point lay within 149 to 153 °C. In series [1], the inhibition at 10 µM came to 100% and the inhibition at 0.1 µM was determined as 97.5%. In the series on motor activity of mice (ip), the inhibition in vivo at 0.98 µmol/kg is 91.9% and the inhibition in vivo at 98 µmol/kg was 91.6%. In the series on motor activity of mice (po), the inhibition in vivo at 3 µmol/kg is 47.9% and the inhibition in vivo at 98 µmol/kg was 90.2%. The “increase in sedative-hypnotic activity” value in the series on motor activity of mice (versus Example 16 of WO2005014597, low dose, independently of the administration route) is “higher than 20%”. Moreover, in series [2], the inhibition at 10 µM came out at 100% and the inhibition at 0.1 µM turned out to be 99.7%.
As for `CCN(C(C)=O)c1cccc(-c2ccnc3c(C#N)cnn23)c1` [Zaleplon, reference compound], in the series with motor activity of mice (ip), the inhibition in vivo at 0.98 µmol/kg is 32.7% and the inhibition in vivo at 98 µmol/kg was 85%. In the series with motor activity of mice (po), the inhibition in vivo at 3 µmol/kg is 25.4% and the inhibition in vivo at 98 µmol/kg is 64.1%.

These data come from US20130331610A1, “Halogenated Pyrazolo[1,5-A]Pyrimidines, Processes, Uses, Compositions and Intermediates” (priority 2005, published 2013).
